Results taken from patent publication US9622988B2, “Small molecule xanthine oxidase inhibitors and methods of use” (Baylor College of Medicine, priority 2012, dated 2017).

What was measured:
[1] = Peroxynitrite scavenging assay; settings: 20 μM (FIG. 7C)
Protocol: Peroxynitrite Scavenging Assay—Peroxynitrite (ONOO^−) was generated by mixing 5 mL acidic solution (0.6 M HCl) of H2O2 (0.7 M) and 5 mL of 0.6 M KNO2 in an ice bath for 1 second and the reaction was quenched with 5 mL of ice-cold 1.2 M NaOH. Residual H2O2 was removed using granular MnO2 prewashed with 1.2 M NaOH and the reaction mixture was then left overnight at −20° C. Concentrations of ONOO^− were determined before each experiment at 302 nm using a molar extinction coefficient of 1,670 M^−1 cm^−1. The final concentrations of reagents used in the assay are as follows: 25 μM ONOO^−, 10 μM DTPA, 5 μM DHR 123, 0.1 M phosphate buffer, pH 7.4. The ONOO^− scavenging assay was performed by monitoring the oxidation of dihydrorhodamine (DHR 123) by ONOO^− spectrophotometrically at 500 nm.

[2] = target: Xanthine oxidase from bovine milk (Bos taurus, UniProt P80457); settings: for inhibition of XO: each compound at 20 μM (FIG. 2); for time course of inhibition of XO activity: 20 nM XO added to 50 μM xanthine and 6.67 μM inhibitor (FIG. 3)
[3] = test system: allantoxanamide induced hyperuricemic mice; assay: Hypouricemic effect in allantoxanamide induced hyperuricemic mice; assay type: in vivo, C57BL/6 mice; settings: 100 mg/kg oral before 200 mg/kg allantoxanamide i.p., up to 4 hours (FIG. 13)
Protocol: A hyperuricemia mouse model was used. Allantoxanamide, a potent uricase inhibitor, was used to induce hyperuricemia in mice in this study. […] The mice were subsequently intraperitoneally injected with allantoxanamide at 200 mg/kg in 0.5% CMC-Na in a volume of 0.1 ml/10 g mouse body weight just after the tested drug oral administration to increase the serum uric acid level. […] The negative control mice were administered PEG400 only followed by i.p. allantoxanamide. The normal group mice were administered PEG400 only followed by i.p. CMC-Na only. Food and water were withheld overnight prior to the study. Whole blood samples were collected from mice through orbital vein bleeding at the end of the study. The mice were anaesthetized with diethyl ether inside a chamber. The blood was allowed to clot for 1 h at room temperature and then centrifuged at 2350×g for 4 min to obtain the serum. The serum was kept on ice and assayed immediately. Serum uric acid was determined with the phosphotungstate method, as known to those of skill in the art.

[4] = Antioxidant activity of polyphenols (summary); settings: FIG. 7
[5] = Superoxide scavenging assay (xanthine-xanthine oxidase system, NBT); settings: 20 μM (FIG. 7D)
Protocol: Superoxide Scavenging Assay—Superoxide (O2^−.) scavenging activity was assayed in the xanthine-xanthine oxidase system and determined by the inhibition of the reduction of nitro blue tetrazolium (NBT) to form blue formazan which has an absorption at 560 nm. The final concentrations of reagents used in the assay are as follows: 16.8 mU xanthine oxidase, 25 μM xanthine, 50 μM NBT, and 0.1 M phosphate buffer (pH 8.5). […] The abilities of polyphenols to scavenge O2^−. were compared with that of GSH.

XO = target: T1, XO (Bos taurus, UniProt P80457); assay: Conversion of DHNB to products by XO; assay type: biochemical, bovine; settings: room temperature
T1 construct: Xanthine oxidase from bovine milk; purchased Sigma Chemical Co. (St. Louis, Mo.); host or cells: bovine milk (natural source)
T1 sequence (P80457 whole entry): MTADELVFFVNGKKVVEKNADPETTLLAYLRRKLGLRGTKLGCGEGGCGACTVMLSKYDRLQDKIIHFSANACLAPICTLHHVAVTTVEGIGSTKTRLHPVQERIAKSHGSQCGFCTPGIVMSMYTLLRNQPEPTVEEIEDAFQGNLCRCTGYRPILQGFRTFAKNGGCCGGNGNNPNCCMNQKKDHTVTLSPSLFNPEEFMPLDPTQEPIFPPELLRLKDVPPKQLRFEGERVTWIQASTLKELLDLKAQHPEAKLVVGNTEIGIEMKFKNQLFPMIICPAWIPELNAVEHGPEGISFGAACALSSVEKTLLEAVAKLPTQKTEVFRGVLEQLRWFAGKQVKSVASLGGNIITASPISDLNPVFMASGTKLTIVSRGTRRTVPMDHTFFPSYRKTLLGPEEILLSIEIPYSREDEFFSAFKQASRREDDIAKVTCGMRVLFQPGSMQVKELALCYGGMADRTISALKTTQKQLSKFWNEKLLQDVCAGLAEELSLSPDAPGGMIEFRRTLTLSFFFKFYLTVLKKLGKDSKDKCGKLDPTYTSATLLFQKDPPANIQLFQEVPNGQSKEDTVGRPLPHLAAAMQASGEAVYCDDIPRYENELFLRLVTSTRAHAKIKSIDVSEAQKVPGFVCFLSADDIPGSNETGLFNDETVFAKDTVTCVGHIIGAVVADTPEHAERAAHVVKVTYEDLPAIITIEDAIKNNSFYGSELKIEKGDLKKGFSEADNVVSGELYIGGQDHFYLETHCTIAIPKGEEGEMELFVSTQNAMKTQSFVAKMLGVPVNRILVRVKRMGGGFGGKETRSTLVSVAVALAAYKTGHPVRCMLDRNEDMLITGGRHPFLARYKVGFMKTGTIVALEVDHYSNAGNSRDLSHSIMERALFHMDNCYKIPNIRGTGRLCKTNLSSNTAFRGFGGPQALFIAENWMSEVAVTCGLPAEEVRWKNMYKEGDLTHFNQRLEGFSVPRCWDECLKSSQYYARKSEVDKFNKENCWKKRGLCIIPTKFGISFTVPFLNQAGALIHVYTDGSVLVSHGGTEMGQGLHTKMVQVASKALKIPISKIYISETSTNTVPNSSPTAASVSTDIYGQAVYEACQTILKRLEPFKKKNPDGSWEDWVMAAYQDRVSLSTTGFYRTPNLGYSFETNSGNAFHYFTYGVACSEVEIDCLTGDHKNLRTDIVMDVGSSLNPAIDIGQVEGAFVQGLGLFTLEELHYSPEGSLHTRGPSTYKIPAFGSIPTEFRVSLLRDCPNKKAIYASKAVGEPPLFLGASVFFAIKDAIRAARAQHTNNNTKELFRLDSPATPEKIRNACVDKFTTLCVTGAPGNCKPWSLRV

Sequence of Xanthine oxidase from bovine milk (P80457 whole entry): as above

Structure (SMILES) | inhibition of XO [2] | ONOO^− scavenging effect [1] | also measured
O=Cc1cc(O)c(O)c([N+](=O)[O-])c1 [DHNB, 3,4-Dihydroxy-5-nitrobenzaldehyde] | inhibitory effects on XO | strong scavenging effect | serum urate levels (hypouricemic effect) [3]: significantly lowered in 2 hours and maintained at a level just slightly higher than the normal level in 4 hours; histology analysis for the liver, kidney, and heart vs control mice (C57BL/6 mice; mouse, in vivo): did not show any difference; time course of inhibition of XO activity [2]: time-dependent inhibition; XO inhibition after treatment with reducing agents ([2]; 20 μM DHNB, then GSH, DTT or 2-ME 20 mM (FIG. 5)): did not abolish the inhibition; initial rates with increasing xanthine concentrations (Dixon plot) ([2]; DHNB concentration fixed, 1 min pre-incubation (FIG. 1B)): did not change with increasing xanthine concentrations
Oc1ncnc2[nH]ncc12 [allopurinol, reference compound] |  |  | serum urate levels (hypouricemic effect) [3]: significantly lowered the serum urate level close to the normal level; pups died in two days (C57BL/6 mice; 500 mg/kg, total 19 pups of surviving mice): eight; antioxidant activity (scavenging of DPPH, ONOO^−, HOCl, superoxide ion) [4]: does not possess the antioxidant properties; time course of inhibition of XO activity [2]: time-dependent inhibition
O=C(O)c1ccc(O)c(O)c1 [DHB-COOH, 3,4-dihydroxybenzoic acid, reference compound] | no effect on XO |  | 
O.O=Cc1cc(O)c(O)c(O)c1 [THB-CHO, 3,4,5-trihydroxybenzaldehyde hydrate] | inhibitory effects on XO | strong scavenging effect | superoxide scavenging effect [5]: strong scavenging effects on superoxide; IC50 of XO activity inhibition ([2]; 20 nM XO, 50 μM xanthine, phosphate buffer pH 7.4, 25° C.): too high to determine
O=C(O)c1cc(O)c(O)c([N+](=O)[O-])c1 [3,4-dihydroxy-5-nitrobenzoic acid] |  |  | inhibitory effect of the DHNB/XO product on XO (XO): no inhibitory effect on XO

The next lines start with results.

inhibition of XO [2] | Structure (SMILES) | ONOO^− scavenging effect [1] | also measured
no effect on XO | O=C(O)/C=C/c1ccc(O)c(O)c1 [caffeic acid, reference compound] | strong scavenging effect | 
no effect on XO | COc1ccc(CO)cc1OC [DMB-CH2OH, 3,4-dimethoxybenzyl alcohol, reference compound] |  | 
no inhibition on XO activity | COc1cc(C=O)ccc1O [Vanillin, reference compound] |  | 
inhibitory effects on XO | O=Cc1ccc(O)c(O)c1 [DHB-CHO, 3,4-dihydroxybenzaldehyde] | strong scavenging effect | 
inhibitory effects on XO | O=Cc1cc(O)c(O)cc1[N+](=O)[O-] [DH6NB, 3,4-Dihydroxy-6-nitrobenzaldehyde] | strong scavenging effect | 
no effect on XO | O=C(O)c1cc(O)c(O)c(O)c1 [gallic acid, reference compound] | strong scavenging effect | 
